Experimental findings from ChEMBL document CHEMBL1909046, “DrugMatrix in vitro pharmacology data” are described below.

One data set has as its target Cytochrome P450 3A4 (Homo sapiens, UniProt P08684). Conditions: bti-tn-5b1-4. Note: in other assays of this panel Not Active means under 50% inhibition at 10 µM.
The target of data set [1] is 5-hydroxytryptamine receptor 2B (Homo sapiens, UniProt P41595). It counts as cell membranes, CHO-K1, Membrane. As to conditions: for IC50: cho-k1. For all read-outs here: in other assays of this panel Not Active means under 50% inhibition at 10 µM.
5-hydroxytryptamine receptor 2B, sequence (P41595 whole entry): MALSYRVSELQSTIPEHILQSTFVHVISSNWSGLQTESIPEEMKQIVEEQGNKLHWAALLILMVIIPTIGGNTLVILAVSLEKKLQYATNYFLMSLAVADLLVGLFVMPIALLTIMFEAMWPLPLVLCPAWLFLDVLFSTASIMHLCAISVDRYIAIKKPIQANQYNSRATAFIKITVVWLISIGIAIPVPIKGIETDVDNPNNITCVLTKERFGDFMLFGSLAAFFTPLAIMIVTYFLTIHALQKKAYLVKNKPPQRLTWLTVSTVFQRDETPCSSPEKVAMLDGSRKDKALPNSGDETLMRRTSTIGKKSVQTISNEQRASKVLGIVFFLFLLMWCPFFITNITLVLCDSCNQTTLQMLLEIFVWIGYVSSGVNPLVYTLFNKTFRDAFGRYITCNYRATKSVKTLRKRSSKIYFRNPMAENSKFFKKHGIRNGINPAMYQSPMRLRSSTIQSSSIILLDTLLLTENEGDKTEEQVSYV
The target of the next data set is D(1A) dopamine receptor (Homo sapiens, UniProt P21728). Kind of data set: DRUGMATRIX: Dopamine D1 radioligand binding (ligand: [3H] SCH-23390). Format: cell membranes, CHO, Membrane. As to conditions: cho; Not Active = under 50% inhibition at 10 µM.
D(1A) dopamine receptor, sequence (P21728 whole entry): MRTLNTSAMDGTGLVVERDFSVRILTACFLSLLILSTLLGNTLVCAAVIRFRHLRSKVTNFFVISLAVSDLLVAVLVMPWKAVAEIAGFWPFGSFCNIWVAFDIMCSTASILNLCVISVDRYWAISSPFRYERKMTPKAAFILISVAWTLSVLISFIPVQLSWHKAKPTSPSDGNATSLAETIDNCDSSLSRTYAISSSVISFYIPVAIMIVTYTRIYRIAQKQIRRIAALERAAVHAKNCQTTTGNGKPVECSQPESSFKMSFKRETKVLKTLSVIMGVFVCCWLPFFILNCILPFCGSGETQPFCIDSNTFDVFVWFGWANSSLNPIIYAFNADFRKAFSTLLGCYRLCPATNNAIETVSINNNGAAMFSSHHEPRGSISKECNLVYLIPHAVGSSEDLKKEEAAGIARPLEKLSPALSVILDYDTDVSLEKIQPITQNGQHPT
The target of another data set is T1, Progesterone receptor (Bos taurus, UniProt Q690N0).
T1 sequence (Q690N0 whole entry): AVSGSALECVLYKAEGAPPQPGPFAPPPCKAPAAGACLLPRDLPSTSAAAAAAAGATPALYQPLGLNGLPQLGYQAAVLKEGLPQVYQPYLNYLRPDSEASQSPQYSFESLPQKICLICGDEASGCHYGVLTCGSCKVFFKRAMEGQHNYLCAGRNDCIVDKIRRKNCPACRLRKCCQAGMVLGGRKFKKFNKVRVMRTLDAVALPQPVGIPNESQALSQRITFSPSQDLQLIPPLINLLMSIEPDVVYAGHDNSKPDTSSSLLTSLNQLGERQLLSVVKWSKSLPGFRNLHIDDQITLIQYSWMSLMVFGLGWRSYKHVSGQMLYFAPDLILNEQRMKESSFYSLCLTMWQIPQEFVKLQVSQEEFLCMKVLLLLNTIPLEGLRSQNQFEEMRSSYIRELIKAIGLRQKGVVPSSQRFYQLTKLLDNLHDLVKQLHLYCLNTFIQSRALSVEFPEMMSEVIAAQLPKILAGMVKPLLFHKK
Kind of data set: DRUGMATRIX: Progesterone radioligand binding (ligand: [3H] R-5020). Format: tissue-based, Uterus. As to conditions: Not Active = under 50% inhibition at 10 µM; for pIC50: read-out: IC50; for pKi: read-out: Ki.

Another data set addresses T2, Cytochrome P450 1A2 (Homo sapiens, UniProt P05177).
T2 sequence (P05177 whole entry): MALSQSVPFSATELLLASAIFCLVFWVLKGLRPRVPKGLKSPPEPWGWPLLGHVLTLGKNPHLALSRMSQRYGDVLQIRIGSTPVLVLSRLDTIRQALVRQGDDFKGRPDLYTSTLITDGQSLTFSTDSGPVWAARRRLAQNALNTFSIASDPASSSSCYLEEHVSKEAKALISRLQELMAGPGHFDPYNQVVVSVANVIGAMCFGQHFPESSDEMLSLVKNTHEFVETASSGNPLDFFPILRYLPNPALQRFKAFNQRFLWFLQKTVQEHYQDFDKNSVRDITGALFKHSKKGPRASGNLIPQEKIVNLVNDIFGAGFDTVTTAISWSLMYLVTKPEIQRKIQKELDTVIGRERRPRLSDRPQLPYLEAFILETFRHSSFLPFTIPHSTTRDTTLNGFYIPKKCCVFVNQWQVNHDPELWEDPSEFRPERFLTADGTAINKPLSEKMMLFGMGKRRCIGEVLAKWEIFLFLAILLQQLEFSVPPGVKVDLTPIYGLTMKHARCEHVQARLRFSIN
Conditions: bti-tn-5b1-4.

A further data set deals with Cytochrome P450 2D6 (Homo sapiens, UniProt P10635). As to conditions: bti-tn-5b1-4.
Cytochrome P450 2D6, sequence (P10635 whole entry): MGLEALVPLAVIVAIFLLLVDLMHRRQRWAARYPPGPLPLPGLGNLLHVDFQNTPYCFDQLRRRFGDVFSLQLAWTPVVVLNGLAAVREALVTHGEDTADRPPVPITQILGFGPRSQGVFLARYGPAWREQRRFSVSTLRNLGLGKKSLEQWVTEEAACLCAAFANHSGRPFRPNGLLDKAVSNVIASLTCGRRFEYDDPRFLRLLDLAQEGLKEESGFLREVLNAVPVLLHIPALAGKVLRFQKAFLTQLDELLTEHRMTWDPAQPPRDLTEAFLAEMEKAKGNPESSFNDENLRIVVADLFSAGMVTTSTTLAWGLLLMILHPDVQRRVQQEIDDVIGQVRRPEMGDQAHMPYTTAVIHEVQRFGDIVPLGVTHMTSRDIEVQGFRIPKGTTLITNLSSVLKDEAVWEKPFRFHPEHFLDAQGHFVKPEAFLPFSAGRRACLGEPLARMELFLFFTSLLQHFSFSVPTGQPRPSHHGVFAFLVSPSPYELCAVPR
The next data set deals with Cytochrome P450 2C19 (Homo sapiens, UniProt P33261). Conditions: bti-tn-5b1-4.
Cytochrome P450 2C19, sequence (P33261 whole entry): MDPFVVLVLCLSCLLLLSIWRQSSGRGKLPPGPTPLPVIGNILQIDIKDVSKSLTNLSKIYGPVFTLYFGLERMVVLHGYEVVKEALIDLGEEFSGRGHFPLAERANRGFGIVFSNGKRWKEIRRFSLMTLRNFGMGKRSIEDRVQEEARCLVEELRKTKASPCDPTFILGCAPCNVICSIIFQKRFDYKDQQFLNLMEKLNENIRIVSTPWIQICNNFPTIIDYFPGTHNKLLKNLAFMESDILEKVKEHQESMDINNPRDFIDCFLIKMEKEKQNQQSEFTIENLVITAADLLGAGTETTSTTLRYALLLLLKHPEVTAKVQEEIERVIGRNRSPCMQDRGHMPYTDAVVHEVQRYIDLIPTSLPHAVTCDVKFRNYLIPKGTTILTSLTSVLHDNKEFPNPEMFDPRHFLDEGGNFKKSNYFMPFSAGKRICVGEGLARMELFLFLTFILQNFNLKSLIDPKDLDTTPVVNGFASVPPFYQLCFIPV
In a further data set the target is T3, Glucocorticoid receptor (Homo sapiens, UniProt P04150). Note: in other assays of this panel Not Active means under 50% inhibition at 10 µM.
T3 sequence (P04150 whole entry): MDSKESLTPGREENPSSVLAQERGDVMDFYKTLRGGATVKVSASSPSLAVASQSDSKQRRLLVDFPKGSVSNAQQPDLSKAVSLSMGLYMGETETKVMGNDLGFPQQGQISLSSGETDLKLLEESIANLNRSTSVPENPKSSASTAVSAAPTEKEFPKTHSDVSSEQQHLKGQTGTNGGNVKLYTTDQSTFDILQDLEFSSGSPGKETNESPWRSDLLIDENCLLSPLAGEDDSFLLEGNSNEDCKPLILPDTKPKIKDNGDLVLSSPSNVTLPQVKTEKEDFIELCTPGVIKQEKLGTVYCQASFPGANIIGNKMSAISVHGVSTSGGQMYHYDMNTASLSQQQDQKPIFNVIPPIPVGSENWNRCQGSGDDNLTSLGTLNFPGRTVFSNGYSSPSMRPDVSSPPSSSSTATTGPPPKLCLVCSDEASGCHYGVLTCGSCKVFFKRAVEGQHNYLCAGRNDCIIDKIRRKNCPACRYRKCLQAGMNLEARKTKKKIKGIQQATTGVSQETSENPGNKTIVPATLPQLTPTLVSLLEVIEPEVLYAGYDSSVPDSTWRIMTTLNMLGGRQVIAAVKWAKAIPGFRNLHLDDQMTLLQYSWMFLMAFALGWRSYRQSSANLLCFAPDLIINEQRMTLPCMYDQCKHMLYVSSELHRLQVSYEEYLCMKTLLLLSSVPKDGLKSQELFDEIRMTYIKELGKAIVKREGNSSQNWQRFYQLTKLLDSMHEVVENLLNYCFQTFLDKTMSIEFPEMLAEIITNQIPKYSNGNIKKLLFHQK
As to conditions: hela s3.

A word on the pIC50: it is the IC50 on a negative log10 scale, so that one unit is a factor of ten. Usually pKi stands for −log10 of the Ki, conventionally taken in molar units.

pIC50, pKi: −log10 of the molar value.

Cytochrome P450 3A4, sequence (P08684 whole entry): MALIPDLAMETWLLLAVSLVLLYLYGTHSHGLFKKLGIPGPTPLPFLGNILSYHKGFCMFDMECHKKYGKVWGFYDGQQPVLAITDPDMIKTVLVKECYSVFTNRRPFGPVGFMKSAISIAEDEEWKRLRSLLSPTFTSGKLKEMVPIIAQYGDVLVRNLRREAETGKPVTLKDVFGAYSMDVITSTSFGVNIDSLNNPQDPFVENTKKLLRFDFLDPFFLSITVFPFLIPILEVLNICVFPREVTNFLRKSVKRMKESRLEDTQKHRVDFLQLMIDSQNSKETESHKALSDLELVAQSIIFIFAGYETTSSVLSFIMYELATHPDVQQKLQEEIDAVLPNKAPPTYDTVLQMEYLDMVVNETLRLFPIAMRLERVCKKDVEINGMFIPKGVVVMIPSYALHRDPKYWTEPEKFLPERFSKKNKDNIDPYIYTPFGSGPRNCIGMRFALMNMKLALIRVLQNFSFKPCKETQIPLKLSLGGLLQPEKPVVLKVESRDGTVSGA

As to `C#C[C@]1(O)CC[C@H]2[C@@H]3[C@H](C)CC4=C(CCC(=O)C4)[C@H]3CC[C@@]21C` [TIBOLONE], the IC50 result (on Cytochrome P450 3A4; in data set [1]; at D(1A) dopamine receptor; against Cytochrome P450 1A2; against Cytochrome P450 2D6) was “Not Active” each time. Besides, the Ki entry at Cytochrome P450 3A4, on Cytochrome P450 1A2 and on Cytochrome P450 2D6 was “Not Active” each time. For the same molecule, the pIC50 on Progesterone receptor is 6.66. The negative-log Ki (pKi) on Progesterone receptor was 7.54.

Turning to `CCN(CC)C(=S)SSC(=S)N(CC)CC`, the IC50 result against Cytochrome P450 2C19, at Cytochrome P450 3A4, against Glucocorticoid receptor, at Progesterone receptor and against Cytochrome P450 2D6 was “Not Active” throughout. The Ki entry at Cytochrome P450 2C19, on Cytochrome P450 3A4 and on Cytochrome P450 2D6 was “Not Active” in each case.

With `OC[C@@H](O)[C@@H](O)[C@H](O)[C@H](O)CO` [MANNITOL], the IC50 result (on Cytochrome P450 2C19; on Cytochrome P450 3A4; in data set [1]; on D(1A) dopamine receptor; on Progesterone receptor; against Cytochrome P450 1A2) was “Not Active” in each case. The IC50 result at Cytochrome P450 2D6 was “Not Active”. For the same molecule, the Ki entry on Cytochrome P450 2C19, on Cytochrome P450 3A4, on Cytochrome P450 1A2 and on Cytochrome P450 2D6 was “Not Active” in each case.

For the molecule `CCN(CC)CCNC(=O)c1cc(Cl)c(N)cc1OC` [METOCLOPRAMIDE], the IC50 entry against Cytochrome P450 2C19, against Cytochrome P450 3A4, at D(1A) dopamine receptor, at Progesterone receptor and at Cytochrome P450 1A2 was “Not Active” in each case. Further, the Ki result at Cytochrome P450 2C19, at Cytochrome P450 3A4 and on Cytochrome P450 1A2 was “Not Active” in each case. The negative-log IC50 (pIC50) in data set [1] (read-out: IC50) is 6.20. Also, in data set [1] (read-out: Ki), the pKi was 6.40.

With `CC(=O)O[C@]1(C(C)=O)CC[C@H]2[C@@H]3C[C@H](C)C4=CC(=O)CC[C@]4(C)[C@H]3CC[C@@]21C` [MEDROXYPROGESTERONE ACETATE], the IC50 entry (against Cytochrome P450 2C19; against Cytochrome P450 3A4; in data set [1]; at D(1A) dopamine receptor; on Cytochrome P450 1A2; against Cytochrome P450 2D6) was “Not Active” each time. Besides, the Ki entry at Cytochrome P450 2C19, on Cytochrome P450 3A4, at Cytochrome P450 1A2 and at Cytochrome P450 2D6 was “Not Active” in each case. In addition, the negative-log IC50 (pIC50) at Progesterone receptor is 8.65. The pKi at Progesterone receptor was 9.53.

With `O=C(c1ccccc1)c1ccc2n1CCC2C(=O)O` (stereo not given) [KETOROLAC], the IC50 result (on Cytochrome P450 2C19; at Cytochrome P450 3A4; in data set [1]; on D(1A) dopamine receptor; on Progesterone receptor; on Cytochrome P450 1A2) was “Not Active” throughout. Also, on Cytochrome P450 2D6, the IC50 entry was “Not Active”. Further, the Ki entry at Cytochrome P450 2C19, at Cytochrome P450 3A4, at Cytochrome P450 1A2 and on Cytochrome P450 2D6 was “Not Active” in each case.

For `Cc1nnc(NS(=O)(=O)c2ccc(N)cc2)s1` [SULFAMETHIZOLE], the IC50 entry (against Cytochrome P450 2C19; at Cytochrome P450 3A4; in data set [1]; on D(1A) dopamine receptor; on Progesterone receptor; at Cytochrome P450 1A2) was “Not Active” throughout. Besides, the IC50 result at Cytochrome P450 2D6 is on record as “Not Active”. The Ki result on Cytochrome P450 2C19, on Cytochrome P450 3A4, on Cytochrome P450 1A2 and at Cytochrome P450 2D6 was “Not Active” in each case.

For `Oc1ccc(/C=C/c2cc(O)cc(O)c2)cc1` [RESVERATROL], the IC50 entry (in data set [1]; on D(1A) dopamine receptor; on Cytochrome P450 2D6) was “Not Active” each time. For the same molecule, the Ki entry at Cytochrome P450 2D6 is reported as “Not Active”.

On to `CNCCCC12CCC(c3ccccc31)c1ccccc12` [MAPROTILINE], for which the IC50 entry at Glucocorticoid receptor and on Progesterone receptor was “Not Active” in each case.

Consider `Cc1cn([C@H]2C=C[C@@H](CO)O2)c(=O)[nH]c1=O` [STAVUDINE], for which the IC50 result (on Cytochrome P450 2C19; against Cytochrome P450 3A4; in data set [1]; on D(1A) dopamine receptor; on Progesterone receptor; on Cytochrome P450 1A2) was “Not Active” each time. Further, at Cytochrome P450 2D6, the IC50 entry is given as “Not Active”. In addition, the Ki result at Cytochrome P450 2C19, on Cytochrome P450 3A4, on Cytochrome P450 1A2 and at Cytochrome P450 2D6 was “Not Active” in each case.

Turning to `CC#C[C@]1(O)CC[C@H]2[C@@H]3CCC4=CC(=O)CCC4=C3[C@@H](c3ccc(N(C)C)cc3)C[C@@]21C` [MIFEPRISTONE], the IC50 entry (on Cytochrome P450 2C19; in data set [1]; on D(1A) dopamine receptor; at Cytochrome P450 1A2; on Cytochrome P450 2D6) was “Not Active” in each case. Moreover, the Ki entry at Cytochrome P450 2C19, on Cytochrome P450 1A2 and on Cytochrome P450 2D6 was “Not Active” each time.

Turning to `Cc1[nH]c(=O)c(C#N)cc1-c1ccncc1` [MILRINONE], the IC50 entry (on Cytochrome P450 3A4; in data set [1]; on D(1A) dopamine receptor; at Cytochrome P450 1A2; against Cytochrome P450 2D6) was “Not Active” throughout. Besides, the Ki result at Cytochrome P450 3A4, at Cytochrome P450 1A2 and at Cytochrome P450 2D6 was “Not Active” in each case.

In the case of `CCN(CC)N=O` [N-NITROSODIETHYLAMINE], the IC50 entry (against Cytochrome P450 2C19; against Cytochrome P450 3A4; in data set [1]; on D(1A) dopamine receptor; on Progesterone receptor; against Cytochrome P450 1A2) was “Not Active” throughout. At Cytochrome P450 2D6, the IC50 entry is “Not Active”. Moreover, the Ki result on Cytochrome P450 2C19, at Cytochrome P450 3A4, on Cytochrome P450 1A2 and at Cytochrome P450 2D6 was “Not Active” each time.

Regarding `CC(O)C(=O)O` (stereo not given) [LACTIC ACID], the IC50 result (at Cytochrome P450 2C19; on Cytochrome P450 3A4; in data set [1]; at D(1A) dopamine receptor; at Progesterone receptor; against Cytochrome P450 1A2) was “Not Active” throughout. Besides, the IC50 entry on Cytochrome P450 2D6 is “Not Active”. In addition, the Ki result at Cytochrome P450 2C19, on Cytochrome P450 3A4, on Cytochrome P450 1A2 and on Cytochrome P450 2D6 was “Not Active” in each case.

Consider `CC(Cl)(Cl)Cl` [TRICHLOROETHANE], for which the IC50 result (on Cytochrome P450 2C19; at Cytochrome P450 3A4; in data set [1]; on D(1A) dopamine receptor; at Progesterone receptor; at Cytochrome P450 1A2) was “Not Active” throughout. The IC50 entry on Cytochrome P450 2D6 is given as “Not Active”. Moreover, the Ki result at Cytochrome P450 2C19, on Cytochrome P450 3A4, at Cytochrome P450 1A2 and on Cytochrome P450 2D6 was “Not Active” throughout.

Take `CN1C[C@H](CNC(=O)OCc2ccccc2)C[C@@H]2c3cccc4c3c(cn4C)C[C@H]21` [METERGOLINE]: the IC50 result against Cytochrome P450 3A4, on Glucocorticoid receptor, on Progesterone receptor and on Cytochrome P450 1A2 was “Not Active” each time. The Ki entry on Cytochrome P450 3A4 and on Cytochrome P450 1A2 was “Not Active” throughout.
